Experimental data reported in ChEMBL document CHEMBL3871262, “β-Ionone and its analogs as promising anticancer agents” (Eur J Med Chem, 2016).

Tests used:
[1] = Cytotoxicity against human MDA PCa 2b cells harboring AR T877A/L701H double mutant assessed as decrease in cell viability after 72 hrs by MTT assay; type: functional, cell-based
[2] = Cytotoxicity against human LNCAP cells harboring AR T877A mutant assessed as decrease in cell viability after 72 hrs by MTT assay; type: functional, cell-based
[3] = Cytotoxicity against human C4-2B cells harboring AR T877A mutant assessed as decrease in cell viability after 72 hrs by MTT assay; type: functional, cell-based; details: LNCaP C4-2B
[4] = Cytotoxicity against human PC3 cells assessed as decrease in cell viability after 72 hrs by MTT assay; type: functional, cell-based; details: PC-3, 72 h
[5] = Cytotoxicity against human 22Rv1 cells harboring AR H874Y mutant assessed as decrease in cell viability after 72 hrs by MTT assay; type: functional, cell-based, CWR22R; details: 22Rv1, 72 h
[6] = Cytotoxicity against human DU145 cells assessed as decrease in cell viability after 72 hrs by MTT assay; type: functional, cell-based; details: DU-145, 72 h
MCF7 [7] = assay: Induction of apoptosis in human MCF7 cells assessed as inhibition of DNA synthesis at 48 hrs relative to control; type: functional
MDA-MB-435 [8] = assay: Inhibition of cell mitosis in human MDA-MB-435 cells after 48 hrs relative to control; type: functional
MDA-MB-435 [9] = assay: Induction of apoptosis in human MDA-MB-435 cells assessed as inhibition of DNA synthesis after 48 hrs relative to control; type: functional
[10] = Growth inhibition of human MDA-MB-435 cells after 7 days relative to control; type: functional, cell-based; details: MDA-MB-435, 168 h
[11] = Growth inhibition of human MDA-MB-435 cells at 50 uM after 7 days relative to control; type: functional; details: MDA-MB-435, 168 h, read-out: GI
[12] = Growth inhibition of human SGC7901 cells after 24 to 48 hrs by MTT assay; type: functional, cell-based; details: SGC-7901
[13] = Growth inhibition of human SGC7901 cells at 50 uM after 24 to 48 hrs by MTT assay relative to control; type: functional; details: SGC-7901, read-out: GI
[14] = Antiproliferative activity against human LNCAP cells after 72 hrs by flow cytometry; type: functional, cell-based
[15] = Growth inhibition of human SGC7901 cells at 25 uM after 8 days by MTT assay relative to control; type: functional; details: SGC-7901, 192 h, read-out: GI
[16] = Growth inhibition of human MDA-MB-435 cells at 200 uM after 7 days relative to control; type: functional; details: MDA-MB-435, 168 h, read-out: GI
[17] = Antiproliferative activity against human DU145 cells after 72 hrs by flow cytometry; type: functional, cell-based; details: DU-145, 72 h
Rattus norvegicus [18] = assay: Antitumor activity against DMBA-induced mammary carcinogenesis in Sprague-Dawley rat assessed as tumor incidence at 9 mmol/kg administered with AIN-76A diet treated 2 weeks prior to DMBA addition for 24 weeks by hematoxylin and eosin staining based microscopic analysis (reference value: 82.1%); type: functional
[19] = Antiproliferative activity against human SGC7901 cells; type: functional, cell-based; details: SGC-7901
[20] = Growth inhibition of human SGC7901 cells at 100 uM after 8 days by MTT assay relative to control; type: functional; details: SGC-7901, 192 h, read-out: GI
Rattus norvegicus [21] = assay: (§1) Antitumor activity against DMBA-induced mammary carcinogenesis in Sprague-Dawley rat assessed as inhibition of tumor formation at 9 mmol/kg administered with AIN-76A diet treated 2 weeks prior to DMBA addition for 24 weeks by hematoxylin and eosin staining based microscopic analysis relative to DMBA treated control; type: functional
[22] = Growth inhibition of human SGC7901 cells at 200 uM after 8 days by MTT assay relative to control; type: functional; details: SGC-7901, 192 h, read-out: GI
Rattus norvegicus [23] = assay: as §1, with “18” for “9”; type: functional
[24] = Growth inhibition of human MDA-MB-435 cells at 100 uM after 7 days relative to control; type: functional; details: MDA-MB-435, 168 h, read-out: GI
[25] = Antiproliferative activity against human MCF7 cells; type: functional, cell-based
[26] = Growth inhibition of human SGC7901 cells at 50 uM after 8 days by MTT assay relative to control; type: functional; details: SGC-7901, 192 h, read-out: GI
Rattus norvegicus [27] = assay: Antitumor activity against DMBA-induced mammary carcinogenesis in Sprague-Dawley rat assessed as tumor incidence at 36 mmol/kg administered with AIN-76A diet treated 2 weeks prior to DMBA addition for 24 weeks by hematoxylin and eosin staining based microscopic analysis (reference value: 82.1%); type: functional
Rattus norvegicus [28] = assay: Antitumor activity against DMBA-induced mammary carcinogenesis in Sprague-Dawley rat assessed as tumor incidence at 18 mmol/kg administered with AIN-76A diet treated 2 weeks prior to DMBA addition for 24 weeks by hematoxylin and eosin staining based microscopic analysis (reference value: 82.1%); type: functional
[29] = Antiproliferative activity against human PC3 cells after 72 hrs by flow cytometry; type: functional, cell-based; details: PC-3, 72 h
[30] = Growth inhibition of human SGC7901 cells at 200 uM after 24 to 48 hrs by MTT assay relative to control; type: functional; details: SGC-7901, read-out: GI
[31] = Growth inhibition of human SGC7901 cells at 100 uM after 24 to 48 hrs by MTT assay relative to control; type: functional; details: SGC-7901, read-out: GI
Rattus norvegicus [32] = assay: as §1, with “36” for “9”; type: functional
[33] = Growth inhibition of human MDA-MB-435 cells at 25 uM after 7 days relative to control; type: functional; details: MDA-MB-435, 168 h, read-out: GI
MDA-MB-435 [34] = assay: Inhibition of clone formation in human MDA-MB-435 cells after 48 hrs relative to control; type: functional
MCF7 [35] = assay: Inhibition of cell mitosis in human MCF7 cells after 48 hrs relative to control; type: functional
[36] = Growth inhibition of human SGC7901 cells at 25 uM after 24 to 48 hrs by MTT assay relative to control; type: functional; details: SGC-7901, read-out: GI

CC1=C(/C=C/C(=O)/C=C/c2csc3ccccc23)C(C)(C)CCC1O (stereo not given)
IC50 [1]: 0.57 to 2 µM | IC50 [2]: 0.57 to 2 µM | IC50 [3]: 0.57 to 2 µM | IC50 [4]: 0.57 to 2 µM | IC50 [5]: 0.57 to 2 µM

COc1cc(/C=C(\C(=O)/C=C/C2=C(C)C(O)CCC2(C)C)C(=O)/C=C/c2ccc(O)c(OC)c2)ccc1O (stereo not given)
IC50 [2]: 1.2 to 5.6 µM | IC50 [3]: 1.2 to 5.6 µM | IC50 [4]: 1.2 to 5.6 µM | IC50 [6]: 1.2 to 5.6 µM | IC50 [5]: 1.2 to 5.6 µM

CC(=O)/C=C/C1=C(C)CCCC1(C)C [BETA-IONONE]
inhibition (INH) (MCF7 [7]): 35.1 - 81.89% | inhibition (INH) (MDA-MB-435 [8]): 75.12% | inhibition (INH) (MDA-MB-435 [9]): 78.35% | IC50 [10]: 42 µM | inhibition of growth at 50 µM [11]: 71.2% | IC50 [12]: 89 µM | inhibition of growth at 50 µM [13]: 30.6% | IC50 [14]: 130 µM | inhibition of growth at 25 µM [15]: 25.9% | inhibition of growth at 200 µM [16]: 84.9% | IC50 [17]: 210 µM | Activity (Rattus norvegicus [18]): 53.3% | IC50 [19]: 175 µM | inhibition of growth at 100 µM [20]: 74.4% | inhibition in vivo at 9000 µmol/kg (Rattus norvegicus [21]): 35.4% | inhibition of growth at 200 µM [22]: 90.1% | inhibition in vivo at 18000 µmol/kg (Rattus norvegicus [23]): 68.3% | inhibition of growth at 100 µM [24]: 81.5% | IC50 [25]: 104 µM | inhibition of growth at 50 µM [26]: 28.2% | Activity (Rattus norvegicus [27]): 10% | Activity (Rattus norvegicus [28]): 25.9% | IC50 [29]: 130 µM | inhibition of growth at 200 µM [30]: 94.2% | inhibition of growth at 100 µM [31]: 78.2% | inhibition in vivo at 36000 µmol/kg (Rattus norvegicus [32]): 87.8% | inhibition of growth at 25 µM [33]: 45.6% | inhibition (INH) (MDA-MB-435 [34]): 95.55% | inhibition (INH) (MCF7 [35]): 87.79% | inhibition of growth at 25 µM [36]: 12%
